NNC(=O)c1ccncc1
solubility (mole fraction)
Details | 301 K | 303 K | 308 K | 311 K | 313 K
in acetone | 0.00946 | 0.0104 | 0.0136 | 0.016 | 0.0187
in ethanol | 0.00545 | 0.00579 | 0.00717 | 0.00816 | 0.00887
in ethyl acetate | 0.00159 | 0.00172 | 0.00206 | 0.00225 | 0.00251
in methanol | 0.0107 | 0.0114 | 0.0137 | 0.0154 | 0.0163
